Data reported in ChEMBL document CHEMBL4765274, “The development of advanced structural framework as multi-target-directed ligands for the treatment of Alzheimer's disease” (Eur J Med Chem, 2020).
The source made the active and inactive calls. The calls are words filed in the database; no cut-off is given here.

Key:
Danio rerio [1] = species: Danio rerio; test: Antialzheimer activity in amyloid beta (1 to 40 residues)-induced zebra fish AD model assessed as reduction in vascular injury at 0.26 ug/ml relative to control; type: functional; parameters: scale not given: the % may be the effect or the level left; settings: dose 0.26 µg/ml
[2] = Toxicity in 3 dpf zebra fish assessed as mortality at 1.56 ug/ml (reference value: 0%); parameters: species or system Danio rerio; settings: zebrafish, at 1.56 µg/mL, read-out: Activity
Danio rerio [3] = species: Danio rerio; test: Antialzheimer activity in Alcl3-induced zebra fish AD model assessed as increase dyskinesia recovery rate at 0.09 ug/ml relative to control; type: functional; settings: dose 0.09 µg/ml
Danio rerio [4] = species: Danio rerio; test: Antialzheimer activity in Alcl3-induced zebra fish AD model assessed as increase in motility at 0.09 ug/ml relative to control; type: functional; settings: dose 0.09 µg/ml
[5] = Toxicity in 2 dpf zebra fish assessed as yolk sac absorption delay at 2.78 ug/ml after 3 days relative to control; parameters: species or system Danio rerio; settings: zebrafish, 72 h, at 2.78 µg/mL, time 3 day
[6] = (§1) Binding affinity to amyloid beta (1 to 42 residues) (unknown origin) by biolayer interferometry analysis; parameters: species or system Homo sapiens
Homo sapiens = species: Homo sapiens; test: as §1
[7] = Metal chelating activity assessed as Cu2+-compound complex formation in methanol at 37.5 uM by UV-Visible spectra analysis
Mus musculus [8] = test: Antialzheimer activity in scopolamine-induced Kunming mouse model of memory impairment assessed as Q30 bases ratio (QC data) in brain hippocampus at 5 mg/kg , po by illumina sequencing method (reference value: 96.67%); type: functional
Danio rerio [9] = species: Danio rerio; test: Antialzheimer activity in Alcl3-induced zebra fish AD model assessed as increase in motility; type: functional, organism-based
SH-SY5Y = test: Cytotoxicity against human SH-SY5Y cells assessed as cell viability up to 100 uM after 48 hrs by MTT assay relative to control; type: cell-based
[10] = Toxicity in 2 dpf zebra fish assessed as yolk sac absorption delay at 25 ug/ml after 3 days relative to control; parameters: species or system Danio rerio; settings: zebrafish, 72 h, at 25 µg/mL, time 3 day
[11] = Drug metabolism in rat liver microsomes assessed as metabolite formation by UPLC-TOF analysis; type: ADME, Microsome
[12] = Inhibition of Cu2+-induced amyloid beta (unknown origin) aggregation after 24 hrs by TEM analysis
[13] = Disaggregation of Cu2+ induced amyloid beta (1 to 42 residues) (unknown origin) aggregation at 25 uM by thioflavin-T fluorescence method relative to control
[14] = Toxicity in 2 dpf zebra fish assessed as short or misshapen jaw at 25 ug/ml after 3 days relative to control; parameters: species or system Danio rerio; settings: zebrafish, 72 h, at 25 µg/mL, time 3 day
HT-22 [15] = test: Activation of ubiquitin-proteasome system in mouse HT-22 cells expressing pRK5-GFP-Tau P301L mutant assessed as increase in tau degradation by measuring reduction in GFP level at 2.5 to 20 uM after 24 hrs by Western blot analysis; type: cell-based; settings: filed as activator, dose 2.5-20 µM
[16] = Toxicity in 2 dpf zebra fish assessed as pericardial edema at 25 ug/ml after 3 days relative to control; parameters: species or system Danio rerio; settings: zebrafish, 72 h, at 25 µg/mL, time 3 day
[17] = Disaggregation of Cu2+ induced amyloid beta (unknown origin) aggregation after 48 hrs by TEM analysis
[18] = Drug metabolism in human liver microsomes assessed as metabolite formation by UPLC-TOF analysis; type: ADME, Microsome
[19] = Toxicity in 2 dpf zebra fish assessed as degenerating muscle within the somites at 25 ug/ml after 3 days relative to control; parameters: species or system Danio rerio; settings: zebrafish, 72 h, at 25 µg/mL, time 3 day
Cholinesterase [20] = target: Cholinesterase (Equus caballus, UniProt P81908); test: Inhibition of equine serum BChE by Ellman's method; type: cell-free
HT-22 [21] = test: Activation of ubiquitin-proteasome system in mouse HT-22 cells expressing pEGFP-N1-APP assessed as increase in APP degradation by measuring reduction in GFP level at 2.5 to 20 uM after 24 hrs by fluorescence microscopic method; type: cell-based; settings: filed as activator, dose 2.5-20 µM
Danio rerio [22] = species: Danio rerio; test: Antialzheimer activity in amyloid beta (1 to 40 residues)-induced zebra fish AD model assessed as reduction in vascular injury at 0.78 ug/ml relative to control; type: functional; parameters: scale not given: the % may be the effect or the level left; settings: dose 0.78 µg/ml
[23] = Metal chelating activity assessed as Cu2+-compound complex formation in water at 37.5 uM by UV-Visible spectra analysis
Cholinesterase [24] = target: T1, Cholinesterase (Homo sapiens, UniProt P06276); test: Reversible inhibition of human BChE assessed as residual activity at IC50 concentration relative to control
[25] = Effect on GFP expression in mouse HT-22 cells expressing pEGFP-N1 at 10 uM after 24 hrs by fluorescence microscopic method; type: ADME, cell-based; settings: ht-22, 24 h
[26] = Toxicity in 3 dpf zebra fish assessed as mortality at 6.25 ug/ml (reference value: 0%); parameters: species or system Danio rerio; settings: zebrafish, at 6.25 µg/mL, read-out: Activity
[27] = Toxicity in 3 dpf zebra fish assessed as mortality at 25 ug/ml (reference value: 0%); parameters: species or system Danio rerio; settings: zebrafish, at 25 µg/mL, read-out: Activity
[28] = Toxicity in 2 dpf zebra fish assessed as yolk sac absorption delay at 8.33 ug/ml after 3 days relative to control; parameters: species or system Danio rerio; settings: zebrafish, 72 h, at 8.33 µg/mL, time 3 day
[29] = Drug metabolism in mouse blood assessed as metabolite formation by UPLC-TOF analysis; type: ADME, tissue-based
[30] = Metal chelating activity assessed as Zn2+-compound complex formation in methanol at 37.5 uM by UV-Visible spectra analysis
PC-12 = test: Neuroprotective activity against H2O2-induced cytotoxicity in rat PC-12 cells assessed as increase in cell viability preincubated for 2 hrs followed by H2O2 addition and measured after 24 hrs by MTT assay; type: functional, cell-based; settings: dose 1-10 µM, time 26.0 hrs
[31] = Metal chelating activity assessed as Zn2+-compound complex formation in water at 37.5 uM by UV-Visible spectra analysis
[32] = Toxicity in 3 dpf zebra fish assessed as mortality at 12.5 ug/ml (reference value: 0%); parameters: species or system Danio rerio; settings: zebrafish, at 12.5 µg/mL, read-out: Activity
Cholinesterase [33] = target: T1, Cholinesterase; test: Inhibition of human serum BChE by Ellman's method; type: cell-free
Danio rerio [34] = species: Danio rerio; test: Antialzheimer activity in Alcl3-induced zebra fish AD model assessed as increase dyskinesia recovery rate at 0.26 ug/ml relative to control; type: functional; settings: dose 0.26 µg/ml
Acetylcholinesterase = Acetylcholinesterase (Homo sapiens, UniProt P22303); test: Reversible inhibition of human AChE assessed as residual activity at 0.1 times of IC50 concentration after 120 mins relative to control
[35] = Toxicity in 3 dpf zebra fish assessed as mortality at 50 ug/ml (reference value: 0%); parameters: species or system Danio rerio; settings: zebrafish, at 50 µg/mL, read-out: Activity
[36] = Toxicity in 3 dpf zebra fish assessed as mortality at 200 ug/ml (reference value: 0%); parameters: species or system Danio rerio; settings: zebrafish, at 200 µg/mL, read-out: Activity
[37] = Metal chelating activity assessed as Cu2+-compound complex formation in PBS buffer at pH 7.4 at 37.5 uM by UV-Visible spectra analysis
Mus musculus [38] = test: Antialzheimer activity in scopolamine-induced Kunming mouse model of memory impairment assessed as latency time at 20 mg/kg , po by step-down passive avoidance test (reference value: 125.65 sec); type: functional

T1 sequence (P06276 whole entry): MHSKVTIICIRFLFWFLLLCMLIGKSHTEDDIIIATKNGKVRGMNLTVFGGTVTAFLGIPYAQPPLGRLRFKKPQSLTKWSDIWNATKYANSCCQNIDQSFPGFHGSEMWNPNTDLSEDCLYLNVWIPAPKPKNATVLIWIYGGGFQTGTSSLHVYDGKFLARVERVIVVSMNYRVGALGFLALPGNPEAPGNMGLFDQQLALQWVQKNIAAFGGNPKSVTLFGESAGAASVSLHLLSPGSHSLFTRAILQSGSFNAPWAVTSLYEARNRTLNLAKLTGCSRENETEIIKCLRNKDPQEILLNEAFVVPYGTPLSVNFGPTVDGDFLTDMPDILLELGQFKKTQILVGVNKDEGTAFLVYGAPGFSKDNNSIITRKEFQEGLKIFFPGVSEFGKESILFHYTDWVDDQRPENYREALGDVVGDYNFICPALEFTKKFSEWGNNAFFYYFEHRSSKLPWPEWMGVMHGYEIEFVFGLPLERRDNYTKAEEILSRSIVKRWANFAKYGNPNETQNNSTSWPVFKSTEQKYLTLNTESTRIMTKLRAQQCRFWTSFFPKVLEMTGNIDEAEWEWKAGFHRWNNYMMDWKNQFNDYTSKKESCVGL
Cholinesterase (Equus caballus, UniProt P81908), sequence (P81908 whole entry): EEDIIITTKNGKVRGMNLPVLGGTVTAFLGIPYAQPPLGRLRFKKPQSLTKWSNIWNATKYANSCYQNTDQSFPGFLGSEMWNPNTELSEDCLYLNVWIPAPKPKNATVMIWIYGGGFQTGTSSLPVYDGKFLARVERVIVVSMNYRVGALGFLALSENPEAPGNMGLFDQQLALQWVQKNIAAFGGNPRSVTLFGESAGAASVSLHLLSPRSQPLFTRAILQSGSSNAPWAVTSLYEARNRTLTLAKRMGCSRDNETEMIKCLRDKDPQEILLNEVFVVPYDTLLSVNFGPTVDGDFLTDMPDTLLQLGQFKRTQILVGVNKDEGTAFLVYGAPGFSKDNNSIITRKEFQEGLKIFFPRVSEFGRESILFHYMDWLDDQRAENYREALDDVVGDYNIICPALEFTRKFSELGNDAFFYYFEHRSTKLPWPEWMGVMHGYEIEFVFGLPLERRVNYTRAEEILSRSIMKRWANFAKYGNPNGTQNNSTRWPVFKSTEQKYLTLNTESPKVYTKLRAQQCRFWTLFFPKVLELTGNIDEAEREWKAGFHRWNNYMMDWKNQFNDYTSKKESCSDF
Acetylcholinesterase, sequence (P22303 whole entry): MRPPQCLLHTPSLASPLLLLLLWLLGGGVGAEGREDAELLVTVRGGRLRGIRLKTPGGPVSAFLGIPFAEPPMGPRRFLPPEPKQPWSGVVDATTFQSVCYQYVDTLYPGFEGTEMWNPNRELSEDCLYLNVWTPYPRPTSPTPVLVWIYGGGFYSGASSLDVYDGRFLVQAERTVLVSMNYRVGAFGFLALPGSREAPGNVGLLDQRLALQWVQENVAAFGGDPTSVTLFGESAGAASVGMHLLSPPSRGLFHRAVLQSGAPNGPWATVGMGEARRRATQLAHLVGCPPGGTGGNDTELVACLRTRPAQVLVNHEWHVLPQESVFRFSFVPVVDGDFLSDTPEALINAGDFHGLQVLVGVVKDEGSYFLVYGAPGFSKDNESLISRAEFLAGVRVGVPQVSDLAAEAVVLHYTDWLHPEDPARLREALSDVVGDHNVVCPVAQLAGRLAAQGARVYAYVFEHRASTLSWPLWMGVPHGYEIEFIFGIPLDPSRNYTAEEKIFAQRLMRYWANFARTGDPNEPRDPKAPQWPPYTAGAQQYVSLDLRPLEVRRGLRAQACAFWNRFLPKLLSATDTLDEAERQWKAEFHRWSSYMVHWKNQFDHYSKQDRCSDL

Question: For `CCN(CCCCOc1ccc(-c2cc(=O)c3c(O)cc(OCCCCN(CC)Cc4ccccc4)cc3o2)cc1)Cc1ccccc1`, which Activity (Danio rerio [1]) is on record?
Answer: 12%

Question: What about the mortality at 1.56 ug/ml [2] of the same molecule?
Answer: 6.7%

Question: What about the Activity (Danio rerio [3]) of the same molecule?
Answer: 67%

Question: What about the Activity (Danio rerio [4]) of the same molecule?
Answer: 72%

Question: And the Activity [5]?
Answer: 26.7%

Question: What about the Kd [6] of the same molecule?
Answer: 1.2 µM

Question: What about the Activity (Homo sapiens) of the same molecule?
Answer: Dose-dependent effect

Question: What about the Activity [7] of the same molecule?
Answer: Active

Question: And the Activity (Mus musculus [8])?
Answer: 96.56%

Question: What about the Activity (Danio rerio [9]) of the same molecule?
Answer: Dose-dependent effect

Question: And the Activity (SH-SY5Y)?
Answer: Non-Toxic

Question: And the Activity [10]?
Answer: 100%

Question: What about the Drug metabolism [11] of the same molecule?
Answer: Metabolite_Detected

Question: What about the inhibition [12] of the same molecule?
Answer: Active

Question: And the Activity [13]?
Answer: 81.3%

Question: What about the Activity [14] of the same molecule?
Answer: 56.7%

Question: What about the Activity (HT-22 [15]) of the same molecule?
Answer: Active

Question: What about the Activity [16] of the same molecule?
Answer: 60%

Question: What about the Activity [17] of the same molecule?
Answer: Active

Question: What about the Drug metabolism [18] of the same molecule?
Answer: Metabolite_Detected

Question: And the Activity [19]?
Answer: 33.3%

Question: And the IC50 (Cholinesterase [20])?
Answer: 9.6 µM

Question: And the Activity (HT-22 [21])?
Answer: Active

Question: What about the Activity (Danio rerio [22]) of the same molecule?
Answer: 0%

Question: And the Activity [23]?
Answer: inactive

Question: And the Activity (Cholinesterase [24])?
Answer: 42.3%

Question: And the Activity [25]?
Answer: Non-Toxic

Question: What about the mortality at 6.25 ug/ml [26] of the same molecule?
Answer: 100%

Question: What about the mortality at 25 ug/ml [27] of the same molecule?
Answer: 100%

Question: What about the Activity [28] of the same molecule?
Answer: 73.3%

Question: What about the Drug metabolism [29] of the same molecule?
Answer: Metabolite_Detected

Question: What about the Activity [30] of the same molecule?
Answer: inactive

Question: What about the Activity (PC-12) of the same molecule?
Answer: Dose-dependent effect

Question: What about the Activity [31] of the same molecule?
Answer: inactive

Question: And the mortality at 12.5 ug/ml [32]?
Answer: 100%

Question: What about the IC50 (Cholinesterase [33]) of the same molecule?
Answer: 15.3 µM

Question: And the Activity (Danio rerio [34])?
Answer: 80%

Question: What about the Activity (Acetylcholinesterase) of the same molecule?
Answer: 86.6%

Question: And the mortality at 50 ug/ml [35]?
Answer: 100%

Question: What about the mortality at 200 ug/ml [36] of the same molecule?
Answer: 100%

Question: What about the Activity [37] of the same molecule?
Answer: Active

Question: And the Time (Mus musculus [38])?
Answer: 245.98 s
